The values that follow come from patent US8853281B2, “Cysteine protease inhibitors” (Medivir UK Ltd, priority 2008, dated 2014).

Holding throughout (assay type): biochemical
For one assay, the target named is T1, human cathepsin S (Homo sapiens, UniProt P25774).
T1 construct: made in house; host or cells: baculovirus expression system
Put plainly: Cathepsin S Ki determination (boc-Val-Leu-Lys-AMC fluorescent substrate). Particulars: baculovirus-expressed human cathepsin S 2 nM, pH 6.5, competitive inhibition fit; read-out: Ki Cat. S. On the procedure: Cathepsin S Ki Determination
The assay uses baculovirus-expressed human cathepsin S and the boc-Val-Leu-Lys-AMC fluorescent substrate available from Bachem in a 384 well plate format, in which 7 test compounds can be tested in parallel with a positive control comprising a known cathepsin S inhibitor comparator.
280 μl/well of 12.5% DMSO are added to rows B-H of two columns of a 96 deep well polypropylene plate. 70 μl/well of substrate is added to row A. 2×250 μl/well of assay buffer (100 mM Na phosphate, 100 mM NaCl, pH 6.5) is added to row A, mixed, and double diluted down the plate to row H.
100 μl/well of assay buffer is added to columns 2-5 and 7-12 of 4 rows of a 96 well V bottom polypropylene plate. 200 μl/well of assay buffer is added to columns 1 and 6.
The first test compound prepared in DMSO is added to column 1 of the top row, typically at a volume to provide between 10 and 30 times the initially determined rough Ki. The rough Ki is calculated from a preliminary run in which 10 μl/well of 1 mM boc-VLK-AMC ( 1/10 dilution of 10 mM stock in DMSO diluted into assay buffer) is dispensed to rows B to H and 20 μl/well to row A of a 96 well Microfluor™ plate. 2 μl of each 10 mM test compound is added to a separate well on row A, columns 1-10. Add 90 μl assay buffer containing 1 mM DTT and 2 nM cathepsin S to each well of rows B-H and 180 μl to row A. Mix row A using a multichannel pipette and double dilute to row G. Mix row H and read in the fluorescent spectrophotometer. The readings are Prism data fitted to the competitive inhibition equation, setting S=100 μM and KM=100 μM to obtain an estimate of the Ki, up to a maximum of 100 μM.
The second test compound is added to column 6 of the top row, the third to column 1 of the second row etc. Add 1 μl of comparator to column 6 of the bottom row. Mix column 1 and double dilute to column 5. Mix column 6 and double dilute to column 10.
Using an 8-channel multistepping pipette set to 5×10 μl, distribute 10 μl/well of substrate to the 384 well assay plate. Distribute the first column of the substrate dilution plate to all columns of the assay plate starting at row A. The tip spacing of the multichannel pipette will correctly skip alternate rows. Distribute the second column to all columns starting at row B.
Using a 12-channel multistepping pipette set to 4×10 μl, distribute 10 μl/well of inhibitor to the 384 well assay plate. Distribute the first row of the inhibitor dilution plate to alternate rows of the assay plate starting at A1. The tip spacing of the multichannel pipette will correctly skip alternate columns. Similarly, distribute the second, third and fourth rows to alternate rows and columns starting at A2, B1 and B2 respectively.
Mix 20 ml assay buffer and 20 μl 1M DTT. Add sufficient cathepsin S to give 2 nM final concentration.
Using the a distributor such as a Multidrop 384, add 30 μl/well to all wells of the assay plate and read in fluorescent spectrophotomoter such as an Ascent.
Fluorescent readings, (excitation and emission wavelengths 390 nm and 460 nm respectively, set using bandpass filters) reflecting the extent of enzyme cleavage of the fluorescent substrate, […] the inhibitor, are linear rate fitted for each well.
Fitted rates for all wells for each inhibitor are fitted to the competitive inhibition equation using SigmaPlot 2000 to determine V, Km and Ki values.
(§1) Potential inhibitors are screened using the above assay with variable concentrations of test compound. Reactions were initiated by addition of enzyme to buffered solutions of substrate and inhibitor. Ki values were calculated according to equation 1.
(§2) [formula] where v0 is the velocity of the reaction, V is the maximal velocity, S is the concentration of substrate with Michaelis constant of KM, and I is the concentration of inhibitor.

The target in a further assay is human cathepsin L (Homo sapiens, UniProt P07711). Put plainly: Cathepsin L Ki (H-D-Val-Leu-Lys-AMC substrate). Particulars: human cathepsin L 5 nM, sodium acetate pH 5.5; read-out: Ki Cat. L. The procedure:
The procedure above with the following amendments is used for the determination of Ki for cathepsin L.
The enzyme is commercially available human cathepsin L (for example Calbiochem). The substrate is H-D-Val-Leu-Lys-AMC available from Bahcem. The assay buffer is 100 mM sodium acetate 1 mM EDTA, pH5.5) The DMSO stock (10 mM in 100% DMSO) is diluted to 10% in assay buffer. Enzyme is prepared at 5 nM concentration in assay buffer plus 1 mM dithiothreitol just before use. 2 ul of 10 mM inhibitor made up in 100% DMSO is dispensed into row A. 10 μl of 50 μM substrate (= 1/200 dilution of 10 mM stock in DMSO, diluted in assay buffer).
as §1, §2

In another assay the target is T2, cathepsin K (Homo sapiens, UniProt P43235).
T2 construct: made in house; host or cells: not fixed: E coli, Pichia or Baculovirus systems named as options
T2 sequence (P43235 115-329): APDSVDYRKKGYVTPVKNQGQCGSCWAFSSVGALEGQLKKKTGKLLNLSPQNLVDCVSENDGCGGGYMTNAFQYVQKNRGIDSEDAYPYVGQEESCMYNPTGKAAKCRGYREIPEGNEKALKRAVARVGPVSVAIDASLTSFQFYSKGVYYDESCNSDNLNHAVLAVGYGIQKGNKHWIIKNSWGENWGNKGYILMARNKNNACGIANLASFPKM
Put plainly: Determination of cathepsin K proteolytic catalytic activity (H-D-Ala-Leu-Lys-AMC fluorogenic substrate). Particulars: human recombinant enzyme 5 nM, ambient temperature; read-out: Ki Cat. K. On the procedure:
Determination of Cathepsin K Proteolytic Catalytic Activity
Convenient assays for cathepsin K are carried out using human recombinant enzyme, such as that described in PDB.
DE Homo sapiens cathepsin K (pycnodysostosis), mRNA (cDNA clone MGC:23107
The recombinant cathepsin K can be expressed in a variety of commercially available expression systems including E coli, Pichia and Baculovirus systems. The purified enzyme is activated by removal of the prosequence by conventional methods.
Standard assay conditions for the determination of kinetic constants used a fluorogenic peptide substrate, typically H-D-Ala-Leu-Lys-AMC, and were determined in either 100 mM Mes/Tris, pH 7.0 containing 1 mM EDTA and 10 mM 2-mercaptoethanol or 100 mMNa phosphate, imM EDTA, 0.1% PEG4000 pH 6.5 or 100 mM Na acetate, pH 5.5 containing 5 mM EDTA and 20 mM cysteine, in each case optionally with […] as stabiliser. The enzyme concentration used was 5 nM. The stock substrate solution was prepared at 10 mM in DMSO. Screens were carried out at a fixed substrate concentration of 60 μM and detailed kinetic studies with doubling dilutions of substrate from 250 μM. The total DMSO concentration in the assay was kept below 3%. All assays were conducted at ambient temperature. Product fluorescence (excitation at 390 nm, emission at 460 nm) was monitored with a Labsystems Fluoroskan Ascent fluorescent plate reader. Product progress curves were generated over 15 minutes following generation of AMC product.
as §1, §2

T1 sequence (P25774 115-331): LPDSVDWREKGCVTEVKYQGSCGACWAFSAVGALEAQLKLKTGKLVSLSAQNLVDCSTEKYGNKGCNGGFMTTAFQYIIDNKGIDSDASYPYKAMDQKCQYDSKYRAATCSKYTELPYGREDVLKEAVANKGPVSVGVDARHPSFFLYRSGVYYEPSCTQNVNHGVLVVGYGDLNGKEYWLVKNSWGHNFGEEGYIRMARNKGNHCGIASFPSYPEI
Chain of human cathepsin L (P07711 114-333): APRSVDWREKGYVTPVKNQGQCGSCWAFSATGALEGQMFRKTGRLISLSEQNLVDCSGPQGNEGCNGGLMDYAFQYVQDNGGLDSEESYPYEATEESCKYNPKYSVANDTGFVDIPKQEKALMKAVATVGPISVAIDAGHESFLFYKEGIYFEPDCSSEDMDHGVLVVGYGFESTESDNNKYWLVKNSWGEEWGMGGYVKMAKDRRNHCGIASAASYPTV

Regarding `Cn1ccc(NC(=O)C(=O)C2(NC(=O)[C@H](CC3(C)CCCC3)NC(=O)C3CC3)CC(F)C2)n1` (stereo partly drawn) [Example 60], the results for the Ki on human cathepsin S, at human cathepsin L and on cathepsin K were 0.24 nM, 1700 nM and 360 nM, respectively.
Turning to `COC1CC(NC(=O)C(CC2(C)CCC2)NC(=O)N2CCOCC2)(C(=O)C(=O)NC2CC2)C1` (single isomer, unassigned) [Example 122], the Ki was 3.9 nM on human cathepsin S, 3800 nM at human cathepsin L and 1000 nM at cathepsin K.
In the case of `CC1(C[C@H](NC(=O)N2CCOCC2)C(=O)NC2(C(=O)C(=O)NC3CC3)CCC2)CCCC1` [Example 2], the Ki came to 2.3 nM at human cathepsin S, 7100 nM at human cathepsin L and 3500 nM on cathepsin K.
With `Cn1ccc(NC(=O)C(=O)C2(NC(=O)[C@H](CC3CCCCC3)NC(=O)N3CCOCC3)CC(F)(F)C2)n1` [Example 111], the inhibition constant Ki was 0.65 nM at human cathepsin S, 200 nM on human cathepsin L and 3600 nM on cathepsin K.
`CC1(C[C@H](NC(=O)N2CCOCC2)C(=O)NC2(C(=O)C(=O)NCCCCl)CCC2)CCCC1` [Example 35]: the Ki is 2 nM on human cathepsin S, 6300 nM on human cathepsin L and 3500 nM on cathepsin K.
With `O=C(NC1CC1)C(=O)C1(NC(=O)[C@H](CC2(F)CCCC2)NC(=O)c2ccc(O)c(F)c2)CC(F)(F)C1` [Example 50, N-[1-(1-Cyclopropylaminooxalyl-3,3-difluoro-cyclobutylcarbamoyl)-2-(1-fluoro-cyclopentyl)-ethyl]-3-fluoro-4-hydroxy-benzamide], the values for the Ki on human cathepsin S, on human cathepsin L and on cathepsin K were 1 nM, 3100 nM and 2400 nM, respectively.
`CC1(C[C@H](NC(=O)c2ccoc2)C(=O)NC2(C(=O)C(=O)NC3CC3)CC(F)(F)C2)CCCC1` [Example 27]: the Ki is 0.79 nM on human cathepsin S, 12000 nM at human cathepsin L and 2300 nM on cathepsin K.
With `Cn1ccc(NC(=O)C(=O)C2(NC(=O)[C@H](CC3(C)CCCC3)NC(=O)N3CCOCC3)CCC2)n1` [Example 6], the Ki worked out at 0.19 nM at human cathepsin S, 600 nM on human cathepsin L and 460 nM at cathepsin K.
For `Cn1ccc(NC(=O)C(=O)[C@]2(NC(=O)[C@H](CC3(C)CCCC3)NC(=O)N3CCCC3)C[C@H](F)C2)n1` [Example 123, Pyrrolidine-1-carboxylic Acid [1-[3-fluoro-1-(1-methyl-1H-pyrazol-3-ylaminooxalyl)-cyclobutylcarbamoyl]-2-(1-methyl-cyclopentyl)-ethyl]-amide] the same measures were 0.35 nM, 1500 nM and 180 nM.
For the compound `CNC(=O)C(=O)C1(NC(=O)[C@H](CC(C)(C)C)NC(=O)c2ccc(NS(=O)(=O)c3ccccc3)cc2)CCC1` [Example 75], the Ki was 0.59 nM on human cathepsin S, 14000 nM on human cathepsin L and 310 nM on cathepsin K.
